Source: patent US8937065B2, “Compositions and methods for modulating a kinase” (Clevexel Pharma, priority 2011, dated 2015)
Where two headings read alike, the source gives them in different places.

Assays:
[1] = test system: Namalwa cells; test: Proliferation of Namalwa cells (Cell Titer-Glo); details: Homo sapiens, B-cell, outcome-based, read-out: IC50 Proliferation Namalwa cells (Burkitt's Lymphoma)
[2] = test system: Caco-2; test: Caco-2 permeability and efflux; assay type: in vitro ADME
[3] = test system: JAK3 pathway; test: Cell based JAK3 pathway inhibition (STAT6-bla RA1 cells, IL-4 activated)
Protocol: 32 μL of the cell suspension (25,000 cells) was added to each well of a 384-well TC-Treated assay plate. Cells in Assay Media were incubated for 16-24 hours in the plate at 37° C./5% CO2 in a humidified incubator. 4 μL of a 10× serial dilution of a compound of the invention was added to appropriate wells of the plate and pre-incubated at 37° C./5% CO2 in a humidified incubator with cells for 30 minutes. 4 μL of 10× control activator IL-4 at the predetermined EC80 concentration was added to wells containing the compound of the invention. The plate was incubated for 5 hours at 37° C./5% CO2 in a humidified incubator. 8 μL of 1 μM Substrate Loading Solution was added to each well and the plate was incubated for 2 hours at room temperature. The plate was read on a fluorescence plate reader.

[4] = test system: Molt-4 cells; test: Proliferation of Molt-4 cells (Cell Titer-Glo); details: Homo sapiens, T cells, outcome-based, read-out: IC50 Proliferation Molt-4 cells (ALL)
[5] = test system: Interleukin 4/STAT6-STAT6-bla RA1; test: Interleukin 4/STAT6-STAT6-bla RA1 inhibition (IL-4-stimulated STAT6 activity in Ramos cells); assay type: cell-based; details: Homo sapiens; Ramos cells, IL4 stimulated; read-out: IC50 B cells mechanism-based: Ramos cells IL4 stimulated STAT6 activity
Protocol: The inhibition of Interleukin 4/STAT6-STAT6-bla RA1 (activated by IL-4) by several compounds was determined using the Screening Protocol and Assay Conditions (Invitrogen, Madison, Wis.). The assays were performed according to manufacturer's protocols. Example 4, Cell-line Specific Protocols IL-4-stimulated STAT6 activity in Ramos cells for details.
Mechanism-based inhibition assays using compound 7A (Table 1) were performed using GeneBLAzer® Technology (Invitrogen Corporation), according to manufacturer specifications. […] In this state, excitation of the coumarin results in fluorescence resonance energy transfer to the fluorescein moiety and emission of green light. […] Excitation of the coumarin in the presence of Beta-lactamase activity results in a blue fluorescence signal. […]
An activator assay screen was run to obtain the EC80 concentration of the known activator to add in step 3. • 1. […] 4 μL of the EC80 concentration of activator, as determined in an Activator assay, was added to all wells containing compound and known inhibitor to bring the final assay volume to 40 μL. • 4. […] The assay plate was read on a fluorescence plate reader (Tecan Safire) and the data is analyzed. […]
STAT6-bla RA1 cells were thawed. […] The plate was read on a fluorescence plate reader.

[6] = test system: Daudi cells; test: Daudi CTG assay (Daudi proliferation, 72 hr, Cell Titer Glo); assay type: cell-based; details: Homo sapiens
Protocol: The compounds of the invention were tested on Daudi proliferation according to the procedure in Example 4 (for Daudi cells): Proliferation of RS4; 11, Ramos, Namalwa, RL, Molt-4 and Daudi cells. The compounds of the invention were tested on Daudi proliferation (72 hr), 3 fold dilution, and 9 points in duplicates. The top concentration for compounds of the invention was 10 uM; reference compound 7A top concentration was 10 uM; and Paclitaxel was 500 nM. Cell viability was determined using the Cell Titer Glo (CTG) reagent and detected by EnVision. EC50s were calculated by Prism 5.
The CellTiter-Glo™ Luminescent Cell Viability Assay uses ATP, a required co-factor of the luciferase reaction, as an indicator of metabolically active cells. The enzyme luciferase acts on luciferin in the presence of Mg^2+and ATP to produce oxyluciferin and to release energy in the form of luminescence. Since the luciferase reaction requires ATP, the luminescence produced is proportional to the amount of ATP present, an indicator of cellular metabolic activity.

`O=C(CN1CCOCC1)Nc1cccc(-c2nc(-c3c[nH]c(C(=O)N4CCCC4)c3)cs2)c1` [7A, 2-morpholino-N-(3-(4-(5-(pyrrolidine-1-carbonyl)-1H-pyrrol-3-yl)thiazol-2-yl)phenyl)acetamide] was tested, and the IC50 [1] was 28000 nM, the “Caco-2 Eflux” value ([2]; Caco-2) was “no” and the “Caco-2 Papp A-B (×10^6/cm · s^−1)” value ([2]; Caco-2, A-B) was 24 ×10^6/cm · s^−1. For the same compound, the IC50 ([3]; STAT6-bla RA1 cells, IL-4 at EC80) was 110 to 1000 nM, the Emax ([3]; cell based JAK3 pathway inhibition, maximal inhibition, read-out: Max % Inh) was 75% and the IC50 [4] was 35000 nM. For the same compound, the IC50 [5] was 32 nM, the IC50 ([6]; Daudi, read-out: Daudi CTG assay IC50, historical data) was 122 nM and the IC50 ([6]; Daudi proliferation 72 hr, control compounds, read-out: Daudi CTG assay control IC50) was 102 nM.
